Test results: EPA's ToxValDB 9.5 (doi:10.2903/j.efsa.2012.2921)
Where “and” joins values, the source holds several entries; their conditions need not be identical. Equal entries are not always repeated.

Assays:
[1] = system: Folsomia candida; details: chronic/long-term
[2] = system: Anas platyrhynchos
[3] = system: Mus musculus; details: no effects
[4] = system: Bibionidae; details: chronic/long-term; duration: 28 days
[5] = system: Oryctolagus sp.; details: reproduction developmental; no effects
[6] = system: Tagia sp.; details: acute; duration: 14 days; mortality
[7] = system: Rattus norvegicus; details: for NOAEL: no effects
[8] = system: Apis mellifera; details: acute, mortality
[9] = system: Daphnia magna; details: chronic/long-term; duration: 21 days; reproduction
[10] = system: Colinus virginianus
[11] = system: Canidae; details: chronic; duration: 1 years; oral; Dog Other; no effects
[12] = system: Oncorhynchus mykiss; details: acute; duration: 96 hours; mortality
[13] = system: Pimephales promelas; details: chronic/long-term; duration: 33 days; growth
[14] = subchronic, duration: 90 days, oral

CCCCCCCCc1c(CC)nc2ncnn2c1N [Ametoctradin]
NOEC [1]: ≥ 268 mg/kg | LD50 ([2]; acute, oral, unspecified, mortality): > 2000 mg/kg-day | NOEC ([2]; reproductive): ≥ 188 mg/kg-day | LC50 ([2]; short-term, oral, feed, mortality): > 1550 mg/kg-day | NOAEL ([3]; chronic, duration: 18 months): 1100 mg/kg-day | NOAEL [3, 14]: 1120 mg/kg-day | NOEC [4]: 222 mg/kg | NOAEL [5]: 1000 mg/kg-day | LC50 [6]: > 1000 mg/kg | LD50 ([7]; acute, oral, mortality): > 2000 mg/kg-day | NOAEL ([7]; chronic, duration: 2 years): 871 mg/kg-day | NOAEL ([7]; reproduction developmental): ≥ 939 mg/kg-day and 1000 mg/kg-day | NOAEL [7, 14]: 1080 mg/kg-day | LD50 ([8]; dermal): > 100 µg/piece | LD50 ([8]; oral, unspecified): > 112 µg/piece | NOEC [9]: 0.044 mg/L | LC50 ([10]; acute, oral, diet, mortality): > 758 mg/kg-day | LD50 ([10]; acute, oral, mortality): > 2000 mg/kg-day | NOEC ([10]; reproduction developmental): ≥ 115 mg/kg-day | NOAEL [11]: 848 mg/kg-day | LC50 [12]: > 0.0646 mg/L | NOEC [13]: 0.048 mg/L
